From patent US8431715B2, “Thiazole compound (as PPARδ) ligand and pharmaceutical, cosmetic and health food comprised thereof” (Seoul National University Industry Foundation, priority 2007, dated 2013)

What was measured:
C57BL/6 mice [1] = test: Reproductive toxicity test; type: in vivo
Description: Acute toxicity and reproductive toxicity tests were performed using mice to evaluate the toxicity of the compound of the present invention. The compound of formula 1 was orally administered to ICR mice at 6 weeks at the dosage of 50 mg/kg, 300 mg/kg and 2000 mg/kg, followed by observation on toxicity for 14 days. […] The result of reproductive toxicity test using C57BL/6 mice was also consistent with the above, which is no toxicity caused by the compound of formula 1 was observed. After oral-administration of the compound to the pregnant female mice, weight gain and growth speed of fetus were investigated.

C57BL/6 mice [2] = test: Hyperlipidemia improving effect, blood HDL level; type: in vivo; settings: 10 mg/kg/day oral, high fat feeds, 6 weeks, serum
Description: In vivo animal test using C57BL/6 (SLC Co.) mice at 6 weeks was performed to confirm the hyperlipidemia improving effect of the compound of the present invention. […] 6 weeks later, blood was taken from orbital veins. Serum was separated and blood HDL level was measured by biochemical method.

## Cc1cc(S[C@H](Cc2ccccc2)c2sc(-c3ccc(C(F)(F)F)cc3)nc2C)ccc1OCC(=O)O (racemic) [formula 1]
C57BL/6 mice [1]; mouse, in vivo, po
  bone development and disease related matters: no changes
  weight gain and growth speed of fetus: no significant difference
C57BL/6 mice [1]; oral, pregnant female mice
  reproductive toxicity: no toxicity
C57BL/6 mice [2]
  HDL level increase compared with the control: 44.6%
